# According to patent publication US4012576A, “Antibiotic complex Bu 2183” (priority 1975, dated 1977):
# Like-named read-outs stand apart in the source and are kept apart here.
# Tests used:
# [1] = Acute toxicity in mice; conditions: for no death at doses up to: 21600 min
# Procedure: The acute toxicity of Bu-2183 A and B was determined in mice by the subcutaneous and intravenous routes.
# [2] = test system: S. aureus Smith, E. coli NIHJ and Ps. aeruginosa A9930; experiment: Experimental infections of mice (all three pathogens); assay type: in vivo; conditions: subcutaneous
# Procedure: (§1) Bu-2183 A and B were evaluated in vivo in experimental infections of mice. The pathogenic bacteria employed were S. aureus Smith, E. coli NIHJ and Ps. aeruginosa A9930. Mice were challenged with a 100 × LD50 dose of the pathogens in a 5% suspension of hog gastric mucin. A single subcutaneous treatment with the antibiotic was made immediately after the bacterial challenge (0 hour), and in a double dose schedule the antibiotic was administered at 0 and 3 hours after the challenge.
# [3] = test system: Ps. aeruginosa A9930; experiment: Experimental infection of mice, median protective dose; assay type: in vivo; conditions: Pseudomonas aeruginosa, A9930, sc, 120 h
# Procedure: as §1
# [4] = test system: E. coli NIHJ; experiment: as above; assay type: in vivo; conditions: Escherichia coli, sc, 120 h
# Procedure: as §1
# [5] = test system: S. aureus Smith; experiment: as above; assay type: in vivo; conditions: Staphylococcus aureus, sc, 120 h
# Procedure: as §1
# [6] = test system: eight test organisms; experiment: Effect of media on activity (overall); assay type: cell-based; conditions: pH 8; Nutrient Agar, Heart Infusion Agar, Mueller-Hinton Agar
# Procedure: The effect of media on the activity of Bu-2183 A and B was determined against eight test organisms. The media tested were Nutrient Agar, Heart Infusion Agar and Mueller-Hinton Agar. The media pH was adjusted at pH 8.
# [7] = test system: Gram-positive and Gram-negative bacteria; experiment: In vitro antibacterial activity (general); assay type: cell-based; conditions: for antibacterial spectrum: in vitro
# Procedure: (§2) The minimum inhibitory concentrations (MIC) of Bu-2183 A and B were determined against a wide variety of bacteria by the two-fold agar dilution method on Nutrient Agar plates. The inocula-replicating device of Steers et al. was used. Inoculum size was adjusted to be 10^4 dilution of overnight culture of the test organisms in Heart Infusion Broth (Difco). The results are shown in Table 6 along with those of kanamycin which was comparatively tested as a reference antibiotic.
# [8] = Solubility; assay type: physicochemical; conditions: base
# [9] = Titration in water; assay type: physicochemical
# [10] = test system: S. aureus D133; experiment: MIC, two-fold agar dilution on Nutrient Agar; assay type: cell-based; conditions: Staphylococcus aureus, read-out: MIC
# Procedure: as §2
# [11] = test system: Ent. cloacae A20364; experiment: MIC, two-fold agar dilution on Nutrient Agar; assay type: cell-based
# Procedure: as §2
# [12] = test system: E. coli A20895; experiment: MIC, two-fold agar dilution on Nutrient Agar; assay type: cell-based; conditions: Escherichia coli, read-out: MIC
# Procedure: as §2
# [13] = test system: S. aureus A20239; experiment: MIC, two-fold agar dilution on Nutrient Agar; assay type: cell-based; conditions: Staphylococcus aureus, read-out: MIC
# Procedure: as §2
# [14] = test system: Ps. aeruginosa A20896; experiment: MIC, two-fold agar dilution on Nutrient Agar; assay type: cell-based; conditions: Pseudomonas aeruginosa, read-out: MIC
# Procedure: as §2
# [15] = test system: Ps. aeruginosa No. 130; experiment: MIC, two-fold agar dilution on Nutrient Agar; assay type: cell-based
# Procedure: as §2
# [16] = test system: K. pneumoniae Type 22-3038; experiment: MIC, two-fold agar dilution on Nutrient Agar; assay type: cell-based
# Procedure: as §2
# [17] = test system: S. aureus D137; experiment: MIC, two-fold agar dilution on Nutrient Agar; assay type: cell-based; conditions: Staphylococcus aureus, read-out: MIC
# Procedure: as §2
# [18] = test system: Prov. stuartii A20894; experiment: MIC, two-fold agar dilution on Nutrient Agar; assay type: cell-based
# Procedure: as §2
# [19] = test system: Pr. mirabilis A9554; experiment: MIC, two-fold agar dilution on Nutrient Agar; assay type: cell-based; conditions: Proteus mirabilis, read-out: MIC
# Procedure: as §2
# [20] = test system: E. coli PO 1495; experiment: MIC, two-fold agar dilution on Nutrient Agar; assay type: cell-based
# Procedure: as §2
# [21] = test system: S. aureus Smith; experiment: MIC, two-fold agar dilution on Nutrient Agar; assay type: cell-based; conditions: Staphylococcus aureus, read-out: MIC
# Procedure: as §2
# [22] = test system: S. aureus D193; experiment: MIC, two-fold agar dilution on Nutrient Agar; assay type: cell-based
# Procedure: as §2
# [23] = test system: Ps. aeruginosa GN 315; experiment: MIC, two-fold agar dilution on Nutrient Agar; assay type: cell-based
# Procedure: as §2
# [24] = test system: E. coli ML 1630; experiment: MIC, two-fold agar dilution on Nutrient Agar; assay type: cell-based; conditions: Escherichia coli, read-out: MIC
# Procedure: as §2
# [25] = test system: Pseudomonas sp. A20621; experiment: MIC, two-fold agar dilution on Nutrient Agar; assay type: cell-based
# Procedure: as §2
# [26] = test system: Ent. cloacae A21006; experiment: MIC, two-fold agar dilution on Nutrient Agar; assay type: cell-based
# Procedure: as §2
# [27] = test system: Pr. morganii A20031; experiment: MIC, two-fold agar dilution on Nutrient Agar; assay type: cell-based
# Procedure: as §2
# [28] = subcutaneous, single dose at 0 hour, 100 × LD50 challenge, read-out: PD50 (single dose)
# [29] = Enterobacter cloacae, A20364, Table 6, El-2, read-out: MIC
# [30] = Pseudomonas aeruginosa, NO.130, Table 6, Pa-16, read-out: MIC
# [31] = Klebsiella pneumoniae, TYPE223038, Table 6, Kp-8, read-out: MIC
# [32] = Providencia stuartii, A20894, Table 6, Ps-2, read-out: MIC
# [33] = Escherichia coli, PO1495, Table 6, Ec-2, read-out: MIC
# [34] = Staphylococcus aureus, D193, Table 6, Sa-3, read-out: MIC
# [35] = Pseudomonas aeruginosa, GN315, Table 6, Pa-27, read-out: MIC
# [36] = Pseudomonas, SP.A20621, Table 6, Px-10, read-out: MIC
# [37] = Enterobacter cloacae, A21006, Table 6, El-12, read-out: MIC
# [38] = Morganella morganii, A20031, Table 6, Pg-2, read-out: MIC
# [39] = double dose at 0 and 3 hours after challenge, read-out: PD50 (double doses)
smiles,measurement,setting,value
CC(=O)NC1C(CO)OC(OC(C(O)CN)C(N)C(O)CO)C(O)C1O (centres unmarked) [Bu-2183 B],acute toxicity compared with Bu-2183 A,"[1]; mice, i.v. and s.c.",much less toxic than Bu-2183 A
same,no death at doses up to,"[1]; mouse, in vivo, iv",≥ 2000 mg/kg
same,no death at doses up to,"[1]; mouse, in vivo, sc",≥ 2000 mg/kg
same,in vivo activity,[2],afforded in vivo activity against all three of the infections tested
same,ED50,[3]; [28],540 mg/kg
same,ED50,[4]; [28],135 mg/kg
same,ED50,[5]; [28],100 mg/kg
same,medium of greatest in vitro activity,[6],the greatest in vitro activity was demonstrated when Nutrient Agar was used
same,bio-activity,[7],bio-active
same,intrinsic activity in terms of MIC values,[7],moderate or rather weak
same,antibacterial spectrum,[7]; listed as B,broad spectrum of antibacterial activity against Gram-positive and Gram-negative bacteria including many of the aminoglycoside-resistant organisms and Pseudomonas strains
same,solubility in methanol and ethanol,[8],slightly soluble
same,"solubility in n-butanol, acetone and other common organic solvents",[8],practically insoluble
same,solubility in water,[8],soluble
same,pKa,[9]; read-out: pKa' (first value),7.15
same,pKa,[9]; read-out: pKa' (second value),9.35
same,MIC,"[10]; D133, Table 6, Sa-4",> 100 µg/mL
same,MIC,[11]; [29],50 µg/mL
same,MIC,"[12]; A20895, Table 6, Ec-62",50 µg/mL
same,MIC,"[13]; A20239, Table 6, Sa-10",100 µg/mL
same,MIC,"[14]; A20896, Table 6, Pa-24",100 µg/mL
same,MIC,[15]; [30],100 µg/mL
same,MIC,[16]; [31],100 µg/mL
same,MIC,"[17]; D137, Table 6, Sa-9",> 100 µg/mL
same,MIC,[18]; [32],> 100 µg/mL
same,MIC,"[19]; A9554, Table 6, Pm-1",25 µg/mL
same,MIC,[20]; [33],50 µg/mL
same,MIC,"[21]; Table 6, Sa-2",50 µg/mL
same,MIC,[22]; [34],25 µg/mL
same,MIC,[23]; [35],50 µg/mL
same,MIC,"[24]; ML1630, Table 6, Ec-5",50 µg/mL
same,MIC,[25]; [36],> 100 µg/mL
same,MIC,[26]; [37],100 µg/mL
same,MIC,[27]; [38],50 µg/mL
CCC(=O)NC1C(CO)OC(OC(C(O)CN)C(N)C(O)CO)C(O)C1O (centres unmarked) [Bu-2183 A],LD50,"[1]; mouse, in vivo, iv",2500 mg/kg
same,LD50 at 360 h,"[1]; mouse, in vivo, sc",1000 mg/kg
same,in vivo activity,[2],afforded in vivo activity against all three of the infections tested
same,ED50,[3]; [39],80 mg/kg
same,ED50,[3]; [28],230 mg/kg
same,ED50,[4]; [39],45 mg/kg
same,ED50,[4]; [28],92 mg/kg
same,ED50,[5]; [39],36 mg/kg
same,ED50,[5]; [28],42 mg/kg
same,medium of greatest in vitro activity,[6],the greatest in vitro activity was demonstrated when Nutrient Agar was used
same,bio-activity,[7],bio-active
same,intrinsic activity in terms of MIC values,[7],moderate or rather weak
same,activity of component A relative to B,"[7]; MIC, Table 6",2-4 fold
same,antibacterial spectrum,[7],broad spectrum of antibacterial activity against Gram-positive and Gram-negative bacteria including many of the aminoglycoside-resistant organisms and Pseudomonas strains
same,solubility in methanol and ethanol,[8],slightly soluble
same,"solubility in n-butanol, acetone and other common organic solvents",[8],practically insoluble
same,solubility in water,[8],soluble
same,pKa,[9]; read-out: pKa' (first value),6.9
same,pKa,[9]; read-out: pKa' (second value),9.4
same,MIC,"[10]; D133, Table 6, Sa-4",25 µg/mL
same,MIC,"[10]; D133, Table 7, Sa-4",50 µg/mL
same,MIC,[11]; [29],25 µg/mL
same,MIC,"[11]; Table 7, El-2",25 µg/mL
same,MIC,"[12]; A20895, Table 6, Ec-62",12.5 µg/mL
same,MIC,"[12]; A20895, Table 7, Ec-62",25 µg/mL
same,MIC,"[13]; A20239, Table 6, Sa-10",25 µg/mL
same,MIC,"[13]; A20239, Table 7, Sa-10",50 µg/mL
same,MIC,"[14]; A20896, Table 6, Pa-24",25 µg/mL
same,MIC,"[14]; A20896, Table 7, Pa-24",50 µg/mL
same,MIC,[15]; [30],25 µg/mL
same,MIC,"[15]; Table 7, Pa-16",25 µg/mL
same,MIC,[16]; [31],25 µg/mL
same,MIC,"[16]; Table 7, Kp-8 (printed Type 22-3028)",25 µg/mL
same,MIC,"[17]; D137, Table 6, Sa-9",100 µg/mL
same,MIC,"[17]; D137, Table 7, Sa-9",50 µg/mL
same,MIC,[18]; [32],> 100 µg/mL
same,MIC,"[18]; Table 7, Ps-2",> 100 µg/mL
same,MIC,"[19]; A9554, Table 6, Pm-1",12.5 µg/mL
same,MIC,"[19]; A9554, Table 7, Pm-1",25 µg/mL
same,MIC,[20]; [33],25 µg/mL
same,MIC,"[20]; Table 7, Ec-2",25 µg/mL
same,MIC,"[21]; Table 6, Sa-2",12.5 µg/mL
same,MIC,"[21]; Table 7, Sa-2",25 µg/mL
same,MIC,[22]; [34],25 µg/mL
same,MIC,"[22]; Table 7, Sa-3",25 µg/mL
same,MIC,[23]; [35],25 µg/mL
same,MIC,"[23]; Table 7, Pa-27",25 µg/mL
same,MIC,"[24]; ML1630, Table 6, Ec-5",12.5 µg/mL
same,MIC,"[24]; ML1630, Table 7, Ec-5",25 µg/mL
same,MIC,[25]; [36],> 100 µg/mL
same,MIC,"[25]; Table 7, Px-10",> 100 µg/mL
same,MIC,[26]; [37],25 µg/mL
same,MIC,"[26]; Table 7, El-12",25 µg/mL
same,MIC,[27]; [38],25 µg/mL
same,MIC,"[27]; Table 7, Pg-2",25 µg/mL
